Test results reported in patent US8883789B2, “Piperazine derivatives and their use as positive allosteric modulators of mGluR5 receptors” (Boehringer Ingelheim International GmbH, priority 2011, dated 2014).
pEC50: −log10 of the molar value.

Target: T1, human recombinant mGluR5 (Homo sapiens, UniProt P41594)
T1 construct: expressed in transfected cells; hygromycin and geneticin selection
Experiment: positive modulation of mGluR5, calcium based FLIPR assay
Conditions: HEK 293 cell line expressing human recombinant mGluR5; Ca2+ peak height after glutamate at approximately 5% basal stimulation; nonlinear regression
Procedure, shortened: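 HEK293 cells with tetracycline-free induction, Calcium-4 dye-loaded in Ringer pH 7.4. Compound added 5 min before glutamate at ~5% of maximal effect, 1% DMSO. EC50 from peak Ca2+ fluorescence, normalized to basal glutamate (100%) and 10 μM CDPPB (200%), via nonlinear regression.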

T1 sequence (P41594 21-1212): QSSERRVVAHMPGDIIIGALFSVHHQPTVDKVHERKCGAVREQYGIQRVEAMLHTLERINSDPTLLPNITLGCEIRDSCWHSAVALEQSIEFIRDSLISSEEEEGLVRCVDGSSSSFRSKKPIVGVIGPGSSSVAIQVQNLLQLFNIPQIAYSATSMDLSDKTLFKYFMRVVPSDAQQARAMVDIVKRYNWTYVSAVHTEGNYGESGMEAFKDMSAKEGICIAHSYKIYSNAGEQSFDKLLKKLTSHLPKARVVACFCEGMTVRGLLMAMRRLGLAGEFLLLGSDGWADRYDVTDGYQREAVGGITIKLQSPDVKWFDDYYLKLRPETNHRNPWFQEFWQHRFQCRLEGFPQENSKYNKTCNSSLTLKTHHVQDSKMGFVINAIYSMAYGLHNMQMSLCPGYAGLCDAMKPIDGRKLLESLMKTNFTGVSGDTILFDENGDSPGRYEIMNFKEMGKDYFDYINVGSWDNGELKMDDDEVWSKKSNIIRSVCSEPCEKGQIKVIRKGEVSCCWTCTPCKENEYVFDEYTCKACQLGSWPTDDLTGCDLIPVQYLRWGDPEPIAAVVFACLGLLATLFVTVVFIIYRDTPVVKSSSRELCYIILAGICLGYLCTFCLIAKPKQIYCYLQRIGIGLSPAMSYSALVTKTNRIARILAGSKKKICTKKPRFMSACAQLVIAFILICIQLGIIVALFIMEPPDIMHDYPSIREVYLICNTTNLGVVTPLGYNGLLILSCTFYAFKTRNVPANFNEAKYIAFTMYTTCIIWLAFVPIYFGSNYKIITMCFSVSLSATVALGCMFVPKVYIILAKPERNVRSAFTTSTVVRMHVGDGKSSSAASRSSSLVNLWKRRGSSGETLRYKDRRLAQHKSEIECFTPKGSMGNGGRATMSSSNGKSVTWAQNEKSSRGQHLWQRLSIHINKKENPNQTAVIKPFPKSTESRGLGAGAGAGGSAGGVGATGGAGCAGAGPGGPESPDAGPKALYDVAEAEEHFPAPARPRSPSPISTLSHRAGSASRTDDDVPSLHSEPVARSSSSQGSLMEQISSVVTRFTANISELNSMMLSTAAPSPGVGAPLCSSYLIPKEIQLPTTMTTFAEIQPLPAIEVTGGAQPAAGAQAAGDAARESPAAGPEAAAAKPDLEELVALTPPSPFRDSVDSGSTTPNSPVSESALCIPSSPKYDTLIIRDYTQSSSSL

Going from `CC1(C)CN(C(=O)c2cccc3c2OCO3)CCN1C(=O)c1ncn(-c2cccc(Cl)c2)n1` [Example 48] to `Cc1cccc(C(=O)N2CCN(C(=O)c3ncn(-c4ccccc4)n3)C(C)(C)C2)c1` [Example 117], the pEC50 falls from 6.90 to 6.68 (0.22 log units). The first is the more potent here.

Going from `CC1CN(C(=O)c2ncn(-c3cccc(Cl)c3)n2)CCN1C(=O)c1ccc(Cl)s1` (stereo not shown) [Example 231] to `COc1cccc(C(=O)N2CCN(C(=O)c3ncn(-c4cccc(F)c4)n3)CC2C)n1` (stereo not shown) [Example 246], the pEC50 rises from 5.75 to 6.64 (0.89 log units).

First: CC1(C)CN(C(=O)c2ccccc2)CCN1C(=O)c1ncn(-c2ccccc2)n1 [Example 112]
Second: CC1(C)CN(C(=O)c2cccc(C3CC3)n2)CCN1C(=O)c1nnn(-c2cccc(F)c2)n1 [Example 185]
The pEC50 of the first is 1.33 log units lower: 6.11 for the first, 7.44 for the second. The second is the more potent here.

`COc1cccc(C(=O)N2CCN(C(=O)c3nnn(-c4cccc(C)c4)n3)C(C)(C)C2)n1` [Example 198] gave a pEC50 of 6.91.
